{"source": "paper PMC9924091", "about": "(Journal of Medicinal Chemistry, 2023)", "key": {"[1]": {"target": "T1, SARS-CoV-2 PL^pro (Severe acute respiratory syndrome coronavirus 2, UniProt P0DTD1)", "T1 construct": "PL^pro papain-like protease", "assay": "SPE-MS SARS-CoV-2 PL^pro inhibition assay", "format": "biochemical"}, "[2]": {"system": "SARS-CoV-2 virus (Victoria strain) in VeroE6 cells", "assay": "microbe, parasite or virus in culture", "format": "cell-based"}, "[3]": {"target": "T2, SARS-CoV-2 M^pro (Severe acute respiratory syndrome coronavirus 2, UniProt P0DTD1)", "format": "biochemical", "design": "M^pro main protease; made in house"}, "[4]": {"target": "T2, SARS-CoV-2 M^pro", "conditions": "M^pro 2.0 μM, inhibitor 10 μM, 20 mM HEPES pH 7.5, 90 min, ambient temperature"}}, "note": "Where two headings read alike, the source gives them in different places."}
{"smiles": "CC(C)(C)[C@H](NC(=O)C(F)(F)F)C(=O)N1C[C@H]2[C@@H]([C@H]1C(=O)N[C@H](C#Cc1ccc([N+](=O)[O-])cc1)C[C@@H]1CCNC1=O)C2(C)C", "note": "[Compound 27b]", "values": [{"measurement": "inhibition of SARS-CoV-2 PL^pro (in words)", "setting": "[1]", "value": "None of the tested M^pro inhibitors inhibited SARS-CoV-2 PL^pro"}]}
{"smiles": "C#C[C@H](C[C@@H]1CCNC1=O)NC(=O)[C@@H]1[C@@H]2[C@H](CN1C(=O)COc1ccc(C(F)(F)F)cc1)C2(C)C", "note": "[Compound 19]", "values": [{"measurement": "inhibition of SARS-CoV-2 progression in infected VeroE6 cells (in words)", "setting": "[2]", "value": "did not show any inhibitory activity over the tested concentration range"}, {"measurement": "inhibition of SARS-CoV-2 PL^pro (in words)", "setting": "[1]", "value": "None of the tested M^pro inhibitors inhibited SARS-CoV-2 PL^pro"}]}
{"smiles": "CC1(C)[C@@H]2[C@@H](C(=O)N[C@H](C#N)C[C@@H]3CCNC3=O)N(C(=O)COc3ccc(OC(F)(F)F)cc3)C[C@@H]21", "note": "[Compound 20]", "values": [{"measurement": "inhibition of SARS-CoV-2 PL^pro (in words)", "setting": "[1]", "value": "None of the tested M^pro inhibitors inhibited SARS-CoV-2 PL^pro"}]}
{"smiles": "CC1(C)[C@@H]2[C@@H](C(=O)N[C@H](C#N)C[C@@H]3CCNC3=O)N(C(=O)COc3ccc(C(F)(F)F)cc3)C[C@@H]21", "note": "[Compound 21]", "values": [{"measurement": "inhibition of SARS-CoV-2 PL^pro (in words)", "setting": "[1]", "value": "None of the tested M^pro inhibitors inhibited SARS-CoV-2 PL^pro"}]}
{"smiles": "C#C[C@H](C[C@@H]1CCNC1=O)NC(=O)[C@H](CC(C)C)NC(=O)OCc1ccccc1", "note": "[Compound 23]", "values": [{"measurement": "inhibition of SARS-CoV-2 progression in infected VeroE6 cells (in words)", "setting": "[2]", "value": "did not show any inhibitory activity over the tested concentration range"}, {"measurement": "inhibition of SARS-CoV-2 PL^pro (in words)", "setting": "[1]", "value": "None of the tested M^pro inhibitors inhibited SARS-CoV-2 PL^pro"}]}
{"smiles": "CSCC[C@@H](C#N)NC(=O)[C@@H]1[C@@H]2[C@H](CN1C(=O)[C@@H](NC(=O)C(F)(F)F)C(C)(C)C)C2(C)C", "note": "[Compound 15]", "values": [{"measurement": "fold less efficient inhibition of SARS-CoV-2 progression in infected VeroE6 cells than nirmatrelvir (1)", "setting": "[2]", "value": "~5", "unit": "fold"}, {"measurement": "EC50", "setting": "[2]; Severe acute respiratory syndrome coronavirus 2, Vero C1008", "value": "~11.8", "unit": "µM"}, {"measurement": "IC50", "setting": "[3]", "value": "0.89 ± 0.17", "unit": "µM"}, {"measurement": "fold less efficient inhibition of isolated M^pro (higher IC50) than alkyne 13", "setting": "[3]", "value": "~6", "unit": "fold"}, {"measurement": "inhibition of SARS-CoV-2 PL^pro (in words)", "setting": "[1]", "value": "None of the tested M^pro inhibitors inhibited SARS-CoV-2 PL^pro"}, {"measurement": "IC50", "setting": "[1]; isolated recombinant SARS-CoV-2 PL^pro, SPE-MS, n = 2, mean ± SD", "value": "> 100", "unit": "µM"}]}
{"smiles": "CC(C)(C)[C@H](NC(=O)C(F)(F)F)C(=O)N1C[C@H]2[C@@H]([C@H]1C(=O)N[C@H](C#Cc1ccccc1)C[C@@H]1CCNC1=O)C2(C)C", "note": "[Compound 27a]", "values": [{"measurement": "covalent reaction with M^pro by protein-observed SPE-MS (in words)", "setting": "[4]", "value": "reacts covalently"}, {"measurement": "inhibition of SARS-CoV-2 PL^pro (in words)", "setting": "[1]; SPE-MS PL^pro inhibition assay", "value": "None of the tested M^pro inhibitors inhibited SARS-CoV-2 PL^pro"}]}
{"smiles": "C#C[C@H](C[C@@H]1CCNC1=O)NC(=O)[C@@H]1[C@@H]2[C@H](CN1C(=O)COc1ccc(OC(F)(F)F)cc1)C2(C)C", "note": "[Compound 18]", "values": [{"measurement": "inhibition of SARS-CoV-2 progression in infected VeroE6 cells (in words)", "setting": "[2]", "value": "did not show any inhibitory activity over the tested concentration range"}, {"measurement": "inhibition of SARS-CoV-2 PL^pro (in words)", "setting": "[1]", "value": "None of the tested M^pro inhibitors inhibited SARS-CoV-2 PL^pro"}]}
{"smiles": "C#C[C@H](CCSC)NC(=O)[C@@H]1[C@@H]2[C@H](CN1C(=O)[C@@H](NC(=O)C(F)(F)F)C(C)(C)C)C2(C)C", "note": "[Compound 14]", "values": [{"measurement": "inhibition of SARS-CoV-2 PL^pro (in words)", "setting": "[1]", "value": "None of the tested M^pro inhibitors inhibited SARS-CoV-2 PL^pro"}]}
{"smiles": "CC(C)(C)[C@H](NC(=O)C(F)(F)F)C(=O)N1C[C@H]2[C@@H]([C@H]1C(=O)N[C@H](C#CC(F)(F)F)C[C@@H]1CCNC1=O)C2(C)C", "note": "[Compound 28]", "values": [{"measurement": "inhibition of SARS-CoV-2 PL^pro (in words)", "setting": "[1]", "value": "None of the tested M^pro inhibitors inhibited SARS-CoV-2 PL^pro"}]}
